Reference: ChEMBL document CHEMBL5512603, “Development of de-novo coronavirus 3-chymotrypsin-like protease (3CLpro) inhibitors since COVID-19 outbreak: A strategy to tackle challenges of persistent virus infection” (Eur J Med Chem, 2024)

Key:
[1] = target: T1, Replicase polyprotein 1ab (Severe acute respiratory syndrome coronavirus 2, UniProt P0DTD1); assay: Inhibition of SARS-CoV-2 3CLp
[2] = target: Protein cereblon/Replicase polyprotein 1ab (Severe acute respiratory syndrome coronavirus 2, UniProt P0DTD1+Q96SW2); assay: PROTAC activity at SARS-CoV-2 Main protease/CRBN E3 ligase (unknown origin)
[3] = target: T1, Replicase polyprotein 1ab; assay: Inhibition of SARS-CoV-2 3CLp by mass spectrometry
[4] = target: T1, Replicase polyprotein 1ab; assay: Inhibition of SARS-CoV-2 recombinant main protease; type: single protein
[5] = Cytotoxicity against African green monkey Vero E6 cells; type: toxicity, cell-based, Vero C1008; conditions: chlorocebus sabaeus
[6] = target: T1, Replicase polyprotein 1ab; assay: Inhibition of 2019-nCoV-2 3CLp using fluorescent substrate by FRET assay
[7] = target: T1, Replicase polyprotein 1ab; assay: Inhibition of SARS-CoV-2 3CLp using fluorescent substrate by FRET assay

Protein cereblon/Replicase polyprotein 1ab, sequence (Q96SW2 whole entry, other chains not shown): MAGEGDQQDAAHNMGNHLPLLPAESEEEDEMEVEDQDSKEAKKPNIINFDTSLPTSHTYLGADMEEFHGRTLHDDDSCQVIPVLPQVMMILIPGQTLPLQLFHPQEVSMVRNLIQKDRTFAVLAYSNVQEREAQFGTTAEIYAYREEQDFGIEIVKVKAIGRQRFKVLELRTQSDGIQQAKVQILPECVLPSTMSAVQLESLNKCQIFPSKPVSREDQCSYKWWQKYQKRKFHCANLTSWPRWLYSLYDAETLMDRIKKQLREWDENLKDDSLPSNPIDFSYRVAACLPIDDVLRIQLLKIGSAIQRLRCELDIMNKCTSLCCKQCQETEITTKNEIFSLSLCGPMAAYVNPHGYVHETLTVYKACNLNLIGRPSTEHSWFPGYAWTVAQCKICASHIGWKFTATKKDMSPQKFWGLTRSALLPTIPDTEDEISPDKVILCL

Cn1cc2cc(/N=c3\[nH]c(=O)n(Cc4cn(CCC(=O)Nc5cccc6c5C(=O)N(C5CCC(=O)NC5=O)C6)nn4)c(=O)n3Cc3cc(F)c(F)cc3F)c(Cl)cc2n1 (stereo not given)
IC50 [1]: > 100 nM
EC50 [2]: > 100 nM

Cn1cc2cc(/N=c3\[nH]c(=O)n(Cc4cn(CCCCCCC(=O)Nc5cccc6c5C(=O)N(C5CCC(=O)NC5=O)C6=O)nn4)c(=O)n3Cc3cc(F)c(F)cc3F)c(Cl)cc2n1 (stereo not given)
IC50 [1]: < 100 nM
EC50 [2]: > 100 nM

Cn1cc2cc(/N=c3\[nH]c(=O)n(Cc4cn(CCCCCC(=O)Nc5cccc6c5C(=O)N(C5CCC(=O)NC5=O)C6=O)nn4)c(=O)n3Cc3cc(F)c(F)cc3F)c(Cl)cc2n1 (stereo not given)
IC50 [1]: < 100 nM
EC50 [2]: < 100 nM

CC(=O)Nc1nc2cc(Cl)c(Nc3nc(=O)n(Cc4ncn(C)n4)c(=O)n3Cc3cc(F)c(F)c(Cl)c3)cc2s1
IC50 [3]: < 1000 nM

Cn1cc2cc(Nc3nc(=O)n(Cc4ccc[nH]c4=O)c(=O)n3Cc3cc(F)c(F)c(F)c3)c(Cl)cc2n1
IC50 [3]: < 1000 nM

O=C(O)c1ccc(Nc2nc(=O)n(Cc3ccc[nH]c3=O)c(=O)n2Cc2cc(F)c(F)c(F)c2)cc1
IC50 [3]: < 1000 nM

Cn1cnc(Cn2c(=O)cc(Nc3cc4cn(C)nc4cc3Cl)n(Cc3cc(F)c(F)cc3F)c2=O)n1
IC50 [3]: 10 nM

CC(C)COc1cc(Cl)cc(-c2cc(-c3c[nH]c(=O)[nH]c3=O)cn(-c3cccnc3)c2=O)c1
IC50 [4]: 190 nM

Cn1cc2cc(/N=c3\[nH]c(=O)n(Cc4cn(CCC(=O)Nc5cccc6c5C(=O)N(C5CCC(=O)NC5=O)C6=O)nn4)c(=O)n3Cc3cc(F)c(F)cc3F)c(Cl)cc2n1 (stereo not given)
IC50 [1]: > 100 nM
EC50 [2]: > 100 nM

CN(C)CCn1cc2cc(Nc3nc(=O)n(Cc4ccc[nH]c4=O)c(=O)n3Cc3cc(F)c(F)c(F)c3)c(Cl)cc2n1
IC50 [3]: < 1000 nM

O=c1[nH]cc(-c2cc(-c3cc(Cl)cc(COc4ccccc4F)c3)c(=O)n(-c3cccnc3)c2)c(=O)[nH]1
IC50 [4]: 24 nM

Cn1cc2cc(/N=c3\[nH]c(=O)n(Cc4cn(CCCCCCCC(=O)Nc5cccc6c5C(=O)N(C5CCC(=O)NC5=O)C6)nn4)c(=O)n3Cc3cc(F)c(F)cc3F)c(Cl)cc2n1 (stereo not given)
IC50 [1]: > 100 nM
EC50 [2]: > 100 nM

Cc1ccccc1OCc1cc(Cl)cc(-c2cc(-c3c[nH]c(=O)[nH]c3=O)cn(-c3cccnc3)c2=O)c1
IC50 [4]: 100 nM

CC(C)(C)NC(=O)[C@@H](c1cccnc1)N(C(=O)c1c[nH]cn1)c1ccc(C(C)(C)C)cc1
CC50 [5]: 129 µM
IC50 [6]: 960 nM

O=c1[nH]cc(-c2cc(-c3cc(Cl)cc(COc4c(F)cccc4F)c3)c(=O)n(-c3cccnc3)c2)c(=O)[nH]1
IC50 [4]: 36 nM

C[C@H](NC(=O)[C@@H](c1cccnc1)N(C(=O)c1ccco1)c1ccc(C(C)(C)C)cc1)c1ccccc1
IC50 [6]: 5700 nM

Cn1cnc(Cn2c(=O)cc(Nc3cc4cn(C)nc4cc3OC(F)(F)F)n(Cc3cc(F)c(F)cc3F)c2=O)n1
IC50 [3]: 10 nM

CC(=O)NCCn1cc2cc(Nc3nc(=O)n(Cc4ccc[nH]c4=O)c(=O)n3Cc3cc(F)c(F)c(F)c3)c(Cl)cc2n1
IC50 [3]: < 1000 nM

CCn1cc2cc(Nc3nc(=O)n(-c4cncc(Cl)c4)c(=O)n3Cc3cc(C#N)ccc3Cl)ccc2n1
IC50 [3]: 355 nM

CC(C)(O)Cn1cc2cc(Nc3nc(=O)n(Cc4ccc[nH]c4=O)c(=O)n3Cc3cc(F)c(F)c(F)c3)c(Cl)cc2n1
IC50 [3]: < 1000 nM

CC(C)(C)NC(=O)[C@@H](c1cccnc1)N(C(=O)c1ccno1)c1ccc(-c2ccccc2)cc1
CC50 [5]: > 200 µM
IC50 [6]: 2470 nM

Cn1cc2cc(/N=c3\[nH]c(=O)n(Cc4cn(CCCCCCCC(=O)Nc5cccc6c5C(=O)N(C5CCC(=O)NC5=O)C6=O)nn4)c(=O)n3Cc3cc(F)c(F)cc3F)c(Cl)cc2n1 (stereo not given)
IC50 [1]: > 100 nM
EC50 [2]: > 100 nM

O=c1[nH]cc(-c2cc(-c3cc(Cl)cc(COc4cccc(F)c4)c3)c(=O)n(-c3cccnc3)c2)c(=O)[nH]1
IC50 [4]: 37 nM

Cc1nc2cc(Br)c(Nc3nc(=O)n(Cc4ncn(C)n4)c(=O)n3Cc3cc(F)c(F)c(F)c3)cc2s1
IC50 [3]: < 1000 nM

Cc1cccc(OCc2cc(Cl)cc(-c3cc(-c4c[nH]c(=O)[nH]c4=O)cn(-c4cccnc4)c3=O)c2)c1
IC50 [4]: 110 nM

COc1ccc(Nc2nc(=O)n(Cc3ccc[nH]c3=O)c(=O)n2Cc2cc(F)c(F)c(F)c2)cc1
IC50 [3]: < 1000 nM

Cn1cc2cc(/N=c3\[nH]c(=O)n(Cc4cn(CCOCC(=O)Nc5cccc6c5C(=O)N(C5CCC(=O)NC5=O)C6=O)nn4)c(=O)n3Cc3cc(F)c(F)cc3F)c(Cl)cc2n1 (stereo not given)
IC50 [1]: > 100 nM
EC50 [2]: < 100 nM

O=c1[nH]cccc1Cn1c(=O)nc(Nc2cc3cn(C4CCOCC4)nc3cc2Cl)n(Cc2cc(F)c(F)c(F)c2)c1=O
IC50 [3]: < 1000 nM

O=c1[nH]cc(-c2cc(-c3cc(Cl)cc(COc4ccccc4Cl)c3)c(=O)n(-c3cccnc3)c2)c(=O)[nH]1
IC50 [4]: 18 nM

CCOC(=O)/C=C/C(=O)N(c1ccc(-c2ccccc2)cc1)[C@@H](C(=O)N[C@@H](C)c1ccccc1)c1cccnc1
IC50 [7]: > 20000 nM

O=C1c2c(O)cc(O)c([Se][Se]c3c(O)cc(O)c4c3OC(c3cc(O)c(O)c(O)c3)C(O)C4=O)c2CC(c2cc(O)c(O)c(O)c2)C1O (stereo not given)
IC50 [7]: 810 nM
